In patent publication US9410152B2, “Use of microrna molecules to influence skin pigmentation” (CHANEL PARFUMS BEAUTE, priority 2011, dated 2016):
“Also recorded” adds a separate entry of the source.

Assays:
Format in all cases: cell-based, human
mRNA MLANA = experiment: qRT-PCR mRNA expression of MLANA; details: MNT-1 cells, 50 nM mimetic, day 12, relative to cel-miR-239b, ΔΔCt
Method: (§1) 4×10^5 MNT-1 cells were seeded per well in a 6-well plate (#353046, Falcon) on day-1. On day 0, the cells were transfected with 50 nM of mimetic of the miRNAs (hsa-mir-137 # C-300604-07-005, hsa-mir-7 # C-300547-05-0005, hsa-mir-330-5p # C-301082-01-0005, negative control # NC-002000-01-05, Dharmacon), using 5 μL of Lipofectamine 2000 (#1668-019, Invitrogen). On day 1, the medium was changed. On day 3, the cells were trypsinized and seeded at 4×10^5 cells per well. On day 4, the cells were transfected again with 50 nM of mimetic of the miRNAs (see day 0). On day 5, the medium was changed. On day 7, the cells were trypsinized and seeded at 4×10^5 cells per well. On day 8, the cells were transfected with 50 nM of mimetic of the miRNAs (see day 0). On day 9, the medium was changed. On day 10, the cells were trypsinized and divided into two (from one by six wells to two by six wells). On day 12, one six-well plate was used for lysis of the RNA and the other for lysis of the proteins. As positive control of depigmentation, MNT-1 cells were incubated with 3.5 mM of kojic acid (Sigma K3125-5G) for 12 days. The cells were distributed as described and the kojic acid was renewed with the medium every 4 days. The percentage inhibition of the kojic acid is of the order of 10%. 700 μL of Qiazol lysis buffer (Qiagen) was added per well of a six-well dish after washing the cells twice with PBS. The total RNA was isolated using the miRNeasy Mini kit (Qiagen) according to the manufacturer's protocol. The total RNA was eluted in 30 μl of water without RNAse. The concentration of RNA was measured using the NanoVue spectrophotometer (GE Healthcare). 1 μg of total RNA was reverse-transcribed using the MLV RT-Enzyme system (Invitrogen) in 60 μL of reaction to produce the corresponding cDNA. […] The concentrations of primers and the sequences are given in Table 5 below: The relative quantity was evaluated using the ΔΔCt comparative method. Briefly, this method compares the quantity of expression of the target gene relative to an endogenous control TBP, within a sample for normalizing the expression. […]

mRNA MITF-M = experiment: qRT-PCR mRNA expression of MITF-M; details: MNT-1 cells, 50 nM mimetic, day 12, relative to cel-miR-239b, ΔΔCt
Method: as §1

TYR proteins = experiment: Western blot of TYR protein; details: MNT-1 cells, 50 nM mimetic, day 12
Method: (§2) 4×10^5 MNT-1 cells were seeded per well in a 6-well plate (#353046, Falcon) on day-1. On day 0, the cells were transfected with 50 nM of mimetic of the miRNAs (hsa-mir-137 # C-300604-07-005, hsa-mir-7 # C-300547-05-0005, hsa-mir-330-5p # C-301082-01-0005, negative control # NC-002000-01-05, Dharmacon), using 5 μL of Lipofectamine 2000 (#1668-019, Invitrogen). On day 1, the medium was changed. On day 3, the cells were trypsinized and seeded at 4×10^5 cells per well. On day 4, the cells were transfected again with 50 nM of mimetic of the miRNAs (see day 0). On day 5, the medium was changed. On day 7, the cells were trypsinized and seeded at 4×10^5 cells per well. On day 8, the cells were transfected with 50 nM of mimetic of the miRNAs (see day 0). On day 9, the medium was changed. On day 10, the cells were trypsinized and divided into two (from one by six wells to two by six wells). On day 12, one six-well plate was used for lysis of the RNA and the other for lysis of the proteins. As positive control of depigmentation, MNT-1 cells were incubated with 3.5 mM of kojic acid (Sigma K3125-5G) for 12 days. The cells were distributed as described and the kojic acid was renewed with the medium every 4 days. The percentage inhibition of the kojic acid is of the order of 10%. […] The concentration of proteins was determined with the BCA Protein Assay (ThermoFisher). […]

MITF = experiment: Western blot of MITF protein; details: MNT-1 cells, 50 nM mimetic, day 12
Method: as §2

mRNA TYRP1 = experiment: qRT-PCR mRNA expression of TYRP1; details: MNT-1 cells, 50 nM mimetic, day 12, relative to cel-miR-239b, ΔΔCt
Method: as §1

Row | Substance | levels of mRNA MLANA (mRNA MLANA; listed as miR-7) | levels of mRNA MITF-M (mRNA MITF-M; listed as miR-7) | content of TYR proteins (Western blot) (TYR proteins) | level of protein MITF (Western blot) (MITF) | levels of mRNA TYRP1 (mRNA TYRP1; listed as miR-7) | levels of mRNA MLANA (mRNA MLANA) | levels of mRNA MLANA (mRNA MLANA; listed as miR-137) | levels of mRNA MITF-M (mRNA MITF-M) | levels of mRNA MITF-M (mRNA MITF-M; listed as miR-137) | levels of mRNA TYRP1 (mRNA TYRP1) | levels of mRNA TYRP1 (mRNA TYRP1; listed as miR-137)
1 | hsa-miR-7: mimetic of miRNA hsa-mir-7 (Dharmacon C-300547-05-0005); mature hsa-miR-7-5p sequence SEQ ID NO: 2 (UGGAAGACUAGUGAUUUUGUUGU; commercial mimic, chemistry not given here; listed as Homo sapiens) | appears to reduce; also recorded: slightly reduced | appears to reduce; also recorded: slightly reduced | decreases | decreases | appears to reduce; also recorded: slightly reduced | – | – | – | – | – | –
2 | hsa-miR-137: mimetic of miRNA hsa-mir-137 (Dharmacon C-300604-07-005); mature sequence SEQ ID NO: 3 (UUAUUGCUUAAGAAUACGCGUAG; commercial mimic, chemistry not given here; listed as Homo sapiens) | – | – | – | eliminates | – | significantly reduced | considerably reduced | significantly reduced | considerably reduced | significantly reduced | considerably reduced
3 | hsa-miR-330-5p: mimetic of miRNA hsa-mir-330-5p (Dharmacon C-301082-01-0005); mature sequence 5'-UCUCUGGGCCUGUGUCUUAGGC-3' (SEQ ID NO: 1) (UCUCUGGGCCUGUGUCUUAGGC; mimic duplex, passenger strand not given here; listed as Homo sapiens) | – | – | decreased | – | – | – | – | – | – | – | –
